According to patent US11224565B2, “N-acyldipeptide derivatives and their uses” (NeoStrata Company, Inc., priority 2011, dated 2022):
Peptide text beside a SMILES is read from it.

Columns and labels:
Assay type in all cases: in vivo, human
Details in all cases: efficacy grade
Nerve disorders = assay: Summary of test results in volunteer subjects: nerve disorders
Description: (§1) In one embodiment, a composition for topical application to test its therapeutic effect was formulated by dissolving a bioactive dipeptide derivative of the present invention in a solution prepared from 40 parts water, 40 parts ethanol and 20 parts propylene glycol by volume (WEP442). In another embodiment, a composition was formulated by dissolving a bioactive dipeptide derivative of the present invention in a non-aqueous solution prepared from 80 parts ethanol and 20 parts propylene glycol by volume (EP82). In yet another embodiment, a composition was formulated first by dissolving a bioactive dipeptide derivative of the present invention in a solution prepared from 80 parts water and 20 parts propylene glycol by volume (WP82), and the solution thus prepared was mixed with an oil-in-water emulsion or cream. In another embodiment, the volunteer subject topically applied the test compositions containing N-acyldipeptide derivatives of the present invention on involved skin or lesions once or twice daily for several weeks or until the involved lesions completely cleared and clinically changed to normal skin. As a control study, the subject also topically applied a vehicle control composition on the involved skin or lesions twice daily for the same period. In yet another embodiment, the volunteer subject topically applied once or twice daily the test compositions containing N-acyldipeptide derivatives of the present invention on the skin site above arthritic joints or painful muscles to provide therapeutic effects for the systemic disorders via topical administration. Some test results are summarized as follows. ND: Nerve disorders

[1] = system: Deranged immune disorders and inflammation; assay: Summary of test results in volunteer subjects: deranged immune disorders and inflammation
Description: In one embodiment, a composition for topical application to test its therapeutic effect was formulated by dissolving a bioactive dipeptide derivative of the present invention in a solution prepared from 40 parts water, 40 parts ethanol and 20 parts propylene glycol by volume (WEP442). In another embodiment, a composition was formulated by dissolving a bioactive dipeptide derivative of the present invention in a non-aqueous solution prepared from 80 parts ethanol and 20 parts propylene glycol by volume (EP82). In yet another embodiment, a composition was formulated first by dissolving a bioactive dipeptide derivative of the present invention in a solution prepared from 80 parts water and 20 parts propylene glycol by volume (WP82), and the solution thus prepared was mixed with an oil-in-water emulsion or cream. In another embodiment, the volunteer subject topically applied the test compositions containing N-acyldipeptide derivatives of the present invention on involved skin or lesions once or twice daily for several weeks or until the involved lesions completely cleared and clinically changed to normal skin. As a control study, the subject also topically applied a vehicle control composition on the involved skin or lesions twice daily for the same period. In yet another embodiment, the volunteer subject topically applied once or twice daily the test compositions containing N-acyldipeptide derivatives of the present invention on the skin site above arthritic joints or painful muscles to provide therapeutic effects for the systemic disorders via topical administration. Some test results are summarized as follows. DI: Deranged immune disorders and inflammation

[2] = system: Aging related changes of skin, nail and hair; assay: Summary of test results in volunteer subjects: aging related changes
Description: as §1, with “AG: Aging related changes of skin, nail and hair” for “ND: Nerve disorders”

Disturbed keratinization = assay: Summary of test results in volunteer subjects: disturbed keratinization
Description: as §1, with “DK: Disturbed keratinization” for “ND: Nerve disorders”

Compound | ND (Nerve disorders) | DI [1] | AG [2] | DK (Disturbed keratinization)
CC[C@H](C)[C@H](NC(C)=O)C(=O)N[C@@H](Cc1ccc(O)cc1)C(N)=O [N-Ac-L-Ile-L-Tyr-NH2] (Ac-Ile-Tyr-NH2) | 2+ (2+: 50% Efficacy) | 2+ (2+: 50% Efficacy) | 2+ (2+: 50% Efficacy) | 2+ (2+: 50% Efficacy)
CC(=O)N[C@@H](CC(C)C)C(=O)NCC(=O)O [N-Ac-L-Leu-Gly-OH] (Ac-Leu-Gly-OH) | 3+ (3+: 75% Efficacy) | 3+ (3+: 75% Efficacy) | 2+ (2+: 50% Efficacy) | 2+ (2+: 50% Efficacy)
CC(=O)N[C@@H](CC(C)C)C(=O)N[C@@H](C)C(N)=O [N-Ac-L-Leu-L-Ala-NH2] (Ac-Leu-Ala-NH2) | 4+ (4+: 95-100% Efficacy) | 4+ (4+: 95-100% Efficacy) | 3+ (3+: 75% Efficacy) | 3+ (3+: 75% Efficacy)
CC(=O)N[C@@H](CC(C)C)C(=O)N[C@@H](C)C(=O)O [N-Ac-L-Leu-L-Ala-OH] (Ac-Leu-Ala-OH) | 3+ (3+: 75% Efficacy) | 3+ (3+: 75% Efficacy) | 2+ (2+: 50% Efficacy) | 2+ (2+: 50% Efficacy)
CC(=O)N[C@@H](CC(C)C)C(=O)N[C@@H](CC(C)C)C(N)=O [N-Ac-L-Leu-L-Leu-NH2] | 2+ (2+: 50% Efficacy) | 2+ (2+: 50% Efficacy) | 2+ (2+: 50% Efficacy) | 2+ (2+: 50% Efficacy)
CC(=O)N[C@@H](CC(C)C)C(=O)N[C@@H](Cc1ccc(O)cc1)C(N)=O [N-Ac-L-Leu-L-Tyr-NH2] (Ac-Leu-Tyr-NH2) | 2+ (2+: 50% Efficacy) | 2+ (2+: 50% Efficacy) | 2+ (2+: 50% Efficacy) | 2+ (2+: 50% Efficacy)
CC(=O)N[C@@H](Cc1ccccc1)C(=O)N[C@@H](Cc1ccccc1)C(N)=O [N-Ac-L-Phe-L-Phe-NH2] (Ac-Phe-Phe-NH2) | 2+ (2+: 50% Efficacy) | 2+ (2+: 50% Efficacy) | 2+ (2+: 50% Efficacy) | 2+ (2+: 50% Efficacy)
CC(=O)N[C@@H](CO)C(=O)NCC(N)=O [N-Ac-L-Ser-Gly-NH2] (Ac-Ser-Gly-NH2) | 2+ (2+: 50% Efficacy) | 2+ (2+: 50% Efficacy) | 2+ (2+: 50% Efficacy) | 2+ (2+: 50% Efficacy)
CC(=O)N[C@@H](Cc1c[nH]c2ccccc12)C(=O)N[C@@H](Cc1c[nH]c2ccccc12)C(N)=O [N-Ac-L-Trp-L-Trp-NH2] (Ac-Trp-Trp-NH2) | 2+ (2+: 50% Efficacy) | 2+ (2+: 50% Efficacy) | 2+ (2+: 50% Efficacy) | 2+ (2+: 50% Efficacy)
CC(=O)N[C@@H](Cc1ccc(O)cc1)C(=O)NCC(N)=O [N-Ac-L-Tyr-Gly-NH2] | 2+ (2+: 50% Efficacy) | 2+ (2+: 50% Efficacy) | 2+ (2+: 50% Efficacy) | 2+ (2+: 50% Efficacy)
CCOC(=O)[C@H](Cc1ccc(O)cc1)NC(=O)[C@H](Cc1ccc(O)cc1)NC(C)=O [N-Ac-L-Tyr-L-Tyr-OEt] (HELM PEPTIDE1{[ac].Y.Y.[CCO[*:1]]}$$$$V2.0) | 2+ (2+: 50% Efficacy) | 2+ (2+: 50% Efficacy) | 2+ (2+: 50% Efficacy) | 2+ (2+: 50% Efficacy)
CC(=O)N[C@H](C(=O)NCC(N)=O)C(C)C [N-Ac-L-Val-Gly-NH2] (Ac-Val-Gly-NH2) | 4+ (4+: 95-100% Efficacy) | 4+ (4+: 95-100% Efficacy) | 2+ (2+: 50% Efficacy) | 2+ (2+: 50% Efficacy)
CC(=O)N[C@H](C(=O)NCC(=O)O)C(C)C [N-Ac-L-Val-Gly-OH] (Ac-Val-Gly-OH) | 4+ (4+: 95-100% Efficacy) | 3+ (3+: 75% Efficacy) | 2+ (2+: 50% Efficacy) | 2+ (2+: 50% Efficacy)
CC(=O)N[C@H](C(=O)N[C@@H](C)C(=O)O)C(C)C [N-Ac-L-Val-L-Ala-OH] (Ac-Val-Ala-OH) | 4+ (4+: 95-100% Efficacy) | 3+ (3+: 75% Efficacy) | 2+ (2+: 50% Efficacy) | 2+ (2+: 50% Efficacy)
CC(=O)N[C@H](C(=O)N[C@@H](Cc1ccc(O)cc1)C(N)=O)C(C)C [N-Ac-L-Val-L-Tyr-NH2] (Ac-Val-Tyr-NH2) | 2+ (2+: 50% Efficacy) | 2+ (2+: 50% Efficacy) | 2+ (2+: 50% Efficacy) | 2+ (2+: 50% Efficacy)
CC(=O)NCCC(=O)NCC(N)=O [N-Ac-β-Ala-Gly-NH2] | 2+ (2+: 50% Efficacy) | 2+ (2+: 50% Efficacy) | 2+ (2+: 50% Efficacy) | 2+ (2+: 50% Efficacy)
CC(=O)NCCC(=O)N[C@@H](Cc1c[nH]cn1)C(N)=O [N-Ac-βAla-L-His-NH2] | 2+ (2+: 50% Efficacy) | 2+ (2+: 50% Efficacy) | 2+ (2+: 50% Efficacy) | 2+ (2+: 50% Efficacy)
CCC(=O)N[C@@H](CC(C)C)C(=O)NCC(=O)O [N-Pr-L-Leu-Gly-OH] (HELM PEPTIDE1{[CCC(=O)[*:2]].L.G}$$$$V2.0) | 3+ (3+: 75% Efficacy) | 3+ (3+: 75% Efficacy) | 2+ (2+: 50% Efficacy) | 2+ (2+: 50% Efficacy)
CCC(=O)N[C@H](C(=O)N[C@@H](C)C(=O)O)C(C)C [N-Pr-L-Val-L-Ala-OH] (HELM PEPTIDE1{[CCC(=O)[*:2]].V.A}$$$$V2.0) | 4+ (4+: 95-100% Efficacy) | 3+ (3+: 75% Efficacy) | 2+ (2+: 50% Efficacy) | 2+ (2+: 50% Efficacy)
NC(=O)CNC(=O)[C@H](Cc1ccc(O)cc1)NC(=O)OCc1ccccc1 [N-Z-L-Tyr-Gly-NH2] | 2+ (2+: 50% Efficacy) | 2+ (2+: 50% Efficacy) | 2+ (2+: 50% Efficacy) | 2+ (2+: 50% Efficacy)
N,N′-diAc-βAla-L-His-NH2 | 2+ (2+: 50% Efficacy) | 2+ (2+: 50% Efficacy) | 2+ (2+: 50% Efficacy) | 2+ (2+: 50% Efficacy)
N-Ac-L-Tyr-L-Hpg-NH2 | 2+ (2+: 50% Efficacy) | 2+ (2+: 50% Efficacy) | 2+ (2+: 50% Efficacy) | 2+ (2+: 50% Efficacy)
